Assay results: patent publication US20060008512A1, “Composition and methods for improved animal performance” (priority 2004, published 2006)
Like-named read-outs stand apart in the source and are kept apart here.

Tested on: Hy-Line W-36 White Leghorn hens
Conditions: for Egg Shell, % (washed, dried): 10 mg/kg of feed, 6 & 10 d rooms combined
Experimental: Experiment 2. […] The photoperiod was 17 hours of light per day (0330 hours to 2030 hours).
The objective was to use T4 to humanely induce molting in hens that are continuously provided with ad libitum access to palatable feed meeting or exceeding all National Research Council (1994) standards. Developing a fully efficacious yet affordable molting protocol was predicated on determining the minimum effective level for T4 supplementation. Factors that potentially may affect the required level of T4 supplementation include: (1) uncertainty regarding the efficiency of T4 absorption by the gastrointestinal tract, (2) the possibility that continuous dietary ingestion of T4 could trigger substantially different biological responses when compared single daily injections, and (3) the likelihood that daily T4 intake would diminish in parallel with molt-related reductions in feed intake associated with cessation in egg production. A spontaneous and voluntary loss of appetite (anorexia) commonly accompanies seasonal molting and broodiness in a variety of avian species (Berry, 2003; Webster, 2003). Accordingly, the responses of hens to diets containing 10, 20, and 40 mg T4/kg, to bracket the anticipated range of T4 needed to cause an effective molt, were determined.

[1] = 10 mg/kg of feed 6 d from day 5, Day 7
[2] = 10 mg/kg of feed 6 d from day 5, Day 10
[3] = 10 mg/kg of feed 6 d from day 5, Day 14
[4] = 10 mg/kg of feed 6 d from day 5, Day 30
[5] = 10 mg/kg of feed 10 d from day 5, Day 7
[6] = 10 mg/kg of feed 10 d from day 5, Day 10
[7] = 10 mg/kg of feed 10 d from day 5, Day 14
[8] = 10 mg/kg of feed 10 d from day 5, Day 30
[9] = 20 mg/kg of feed 6 d from day 5, Day 7
[10] = 20 mg/kg of feed 6 d from day 5, Day 10
[11] = 20 mg/kg of feed 6 d from day 5, Day 14
[12] = 20 mg/kg of feed 6 d from day 5, Day 30

Q: What does the source list for `N[C@@H](Cc1cc(I)c(Oc2cc(I)c(O)c(I)c2)c(I)c1)C(=O)O` [L-thyroxine, 3,5,3′,5′-tetraiodo-L-thyronine]?
A: Onset of molt after T4 feeding was initiated (10 mg T4/kg, 10 days on test diets, half of the hens): 11 days; Body weight (BW) (10 mg/kg of feed 6 d from day 5, Day 1): 1501 g; Body weight (BW) [1]: 1377 g; Body weight change from day 1 (% BWC) [1]: −8.3%; Body weight (BW) [2]: 1293 g; Body weight change from day 1 (% BWC) [2]: −13.9%; Body weight (BW) [3]: 1424 g; Body weight change from day 1 (% BWC) [3]: −5.1%; Body weight (BW) [4]: 1483 g; Body weight change from day 1 (% BWC) [4]: −1.2%; Hen-day egg production (10 mg/kg of feed 6 d from day 5, day 4): 75%; Hen-day egg production (10 mg/kg of feed 6 d from day 5, day 6): 58%; Hen-day egg production (10 mg/kg of feed 6 d from day 5, day 8): 25%; Hen-day egg production (10 mg/kg of feed 6 d from day 5, day 10): 8%; Hen-day egg production (10 mg/kg of feed 6 d from day 5, day 12): 17%; Hen-day egg production (10 mg/kg of feed 6 d from day 5, day 14): 0%; Hen-day egg production (10 mg/kg of feed 6 d from day 5, day 16): 33%; Hen-day egg production (10 mg/kg of feed 6 d from day 5, day 18): 25%; Hen-day egg production (10 mg/kg of feed 6 d from day 5, day 20): 58%; Hen-day egg production (10 mg/kg of feed 6 d from day 5, day 22): 75%; Hen-day egg production (10 mg/kg of feed 6 d from day 5, day 24): 83%; Hen-day egg production (10 mg/kg of feed 6 d from day 5, day 26): 42%; Hen-day egg production (10 mg/kg of feed 6 d from day 5, day 28): 83%; Hen-day egg production (10 mg/kg of feed 6 d from day 5, day 30): 75%; Body weight (BW) (10 mg/kg of feed 10 d from day 5, Day 1): 1477 g; Body weight (BW) [5]: 1372 g; Body weight change from day 1 (% BWC) [5]: −7.1%; Body weight (BW) [6]: 1335 g; Body weight change from day 1 (% BWC) [6]: −9.6%; Body weight (BW) [7]: 1314 g; Body weight change from day 1 (% BWC) [7]: −11.0%; Body weight (BW) [8]: 1400 g; Body weight change from day 1 (% BWC) [8]: −5.2%; Hen-day egg production (10 mg/kg of feed 10 d from day 5, day 4): 58%; Hen-day egg production (10 mg/kg of feed 10 d from day 5, day 6): 50%; Hen-day egg production (10 mg/kg of feed 10 d from day 5, day 8): 42%; Hen-day egg production (10 mg/kg of feed 10 d from day 5, day 10): 17%; Hen-day egg production (10 mg/kg of feed 10 d from day 5, day 12): 17%; Hen-day egg production (10 mg/kg of feed 10 d from day 5, day 14): 17%; Hen-day egg production (10 mg/kg of feed 10 d from day 5, day 16): 17%; Hen-day egg production (10 mg/kg of feed 10 d from day 5, day 18): 25%; Hen-day egg production (10 mg/kg of feed 10 d from day 5, day 22): 33%; Hen-day egg production (10 mg/kg of feed 10 d from day 5, day 24): 50%; Hen-day egg production (10 mg/kg of feed 10 d from day 5, day 26): 25%; Hen-day egg production (10 mg/kg of feed 10 d from day 5, day 28): 25%; Hen-day egg production (10 mg/kg of feed 10 d from day 5, day 30): 33%; Egg Shell, % (washed, dried) (Days 2 to 4): 7.93 (n = 6) %; Egg Shell, % (washed, dried) (Days 5 to 6): 7.39 (n = 9) %; Egg Shell, % (washed, dried) (Days 7 to 8): 6.63 (n = 8) %; Body weight (BW) (20 mg/kg of feed 6 d from day 5, Day 1): 1582 g; Body weight (BW) [9]: 1434 g; Body weight change from day 1 (% BWC) [9]: −9.4%; Body weight (BW) [10]: 1373 g; Body weight change from day 1 (% BWC) [10]: −13.2%; Body weight (BW) [11]: 1491 g; Body weight change from day 1 (% BWC) [11]: −3.9%; Body weight (BW) [12]: 1521 g; Body weight change from day 1 (% BWC) [12]: −3.9%; Hen-day egg production (20 mg/kg of feed 6 d from day 5, day 4): 94%; Hen-day egg production (20 mg/kg of feed 6 d from day 5, day 6): 69%; Hen-day egg production (20 mg/kg of feed 6 d from day 5, day 8): 17%; Hen-day egg production (20 mg/kg of feed 6 d from day 5, day 10): 0%; Hen-day egg production (20 mg/kg of feed 6 d from day 5, day 12): 17%
